Laboratory results: patent US20260200919A1, “SUBSTITUTED AMINOPYRIDINE COMPOUNDS AND METHODS OF TREATING DISEASE USING SAME” (Atavistik Bio, Inc., priority 2023, published 2026)

Assays:
[1] = target: T1, human recombinant kinase full-length AKT1 E17K (Homo sapiens, UniProt P31749, E17K); experiment: AKT1 E17K kinase assay (TR-FRET, Lance); format: biochemical; settings: 0.6 nM AKT1 E17K, 50 nM Ulight-CREBtide, either 50 μM ATP or 2 mM ATP (not specified which), 60 min at RT
T1 construct: Purified human recombinant kinase full-length AKT1 E17K was expressed in insect cells; made in house; host or cells: insect cells
Description: AKT1 E17K kinase assay: Inhibitory effects of compounds on AKT1 E17K were undertaken in a 10-pt dose response kinase activity assay measuring phospho-peptide product formation based on TR-FRET signal as described in the following paragraph.
(§1) Purified human recombinant kinase full-length AKT1 E17K was expressed in insect cells and activated in vitro by PDPK1. Ulight™-CREBtide (PerkinElmer, catalog number TRF0107) was used as the peptide substrate. The reaction buffer consisted of 50 mM HEPES pH 7.5, 10 mM MgCl2, 0.01% Triton X-100, 0.01% BSA, 2 mM DTT, 0.6 nM AKT1 E17K, 50 nM. Ulight™ CREBtide and either 50 μM ATP or 2 mM ATP. The compound solution was prepared as 10 mM DMSO stock. […] Final DMSO concentration in the assay was 1%. […] The reaction was stopped after 60 min of incubation at RT by the addition of 10 μL of Detection Mix (PerkinElmer, #CR97-100) consisting of Europium-anti-phospho-CREB (Ser133) (Perkin Elmer, catalog numberTRF0200). Incubation with the detection mix for a further 60 min allowed binding of antibody to the phospho-Ulight™ CREBtide. The fluorescence emissions at 620 nm and 665 nm after excitation at […] was measured using Envision reader. The ratio of the emissions at 665 nm and at 620 nm provided the measure for the amount of phosphorylated CREBtide product of AKT1 E17K kinase activity.

[2] = target: T2, human recombinant kinase full-length wildtype AKT1 (Homo sapiens, UniProt P31749); experiment: AKT1 kinase assay (wildtype, TR-FRET, Lance); format: biochemical; settings: 0.6 nM wildtype AKT1, 50 nM Ulight-CREBtide, either 50 μM ATP or 2 mM ATP (not specified which), 60 min at RT
T2 construct: Purified human recombinant kinase full-length wildtype AKT1 was expressed in insect cells; made in house; host or cells: insect cells
Description: AKT1 kinase assay: Inhibitory effects of compounds on wildtype AKT1 were undertaken in a 10-pt dose response kinase activity assay measuring phospho-peptide product formation based on TR-FRET signal as described in the following paragraph.
as §1, with “full-length wildtype” for “full-length”, “AKT1” for “AKT1 E17K”, “Ulight™—CREBtide” for “Ulight™-CREBtide”, “AKT1,” for “AKT1 E17K,”, “nM Ulight™-CREBtide” for “nM. Ulight™ CREBtide”

T1 sequence (P31749 whole entry E17K): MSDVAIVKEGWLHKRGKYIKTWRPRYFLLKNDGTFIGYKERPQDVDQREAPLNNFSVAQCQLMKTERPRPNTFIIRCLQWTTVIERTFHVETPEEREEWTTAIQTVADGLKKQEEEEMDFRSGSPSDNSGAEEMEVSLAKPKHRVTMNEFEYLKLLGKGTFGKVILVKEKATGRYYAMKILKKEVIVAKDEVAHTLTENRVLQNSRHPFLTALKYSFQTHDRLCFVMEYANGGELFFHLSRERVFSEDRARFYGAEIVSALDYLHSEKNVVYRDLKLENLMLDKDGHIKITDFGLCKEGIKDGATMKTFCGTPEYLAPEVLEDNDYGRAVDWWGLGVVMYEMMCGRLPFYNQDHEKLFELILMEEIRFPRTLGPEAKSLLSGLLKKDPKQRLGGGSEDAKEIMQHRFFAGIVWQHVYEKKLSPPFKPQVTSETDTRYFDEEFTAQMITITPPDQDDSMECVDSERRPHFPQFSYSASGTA
T2 sequence (P31749 whole entry): as the sequence (P31749 whole entry E17K) above, with K17E counted along it

SMILES | IC50 [1] [nM] | IC50 [2] [nM]
Nc1ncccc1-c1nc2ccc(-c3ccccc3)nc2n1-c1ccc(NC(=O)c2cccc(CCC(=O)O)c2)cc1 [Compound 57, 3-(3-((4-(2-(2-aminopyridin-3-yl)-5-phenyl-3H-imidazo[4,5-b]pyridin-3-yl)phenyl)carbamoyl)phenyl) propanoic acid] | < 50 | < 500
Nc1ncccc1-c1nc2ccc(-c3ccccc3)nc2n1-c1ccc(NC(=O)c2ccc(C(=O)O)cc2)nc1 [Compound 59, 4-((5-(2-(2-aminopyridin-3-yl)-5-phenyl-3H-imidazo[4,5-b]pyridin-3-yl)pyridin-2-yl)carbamoyl)benzoic acid] | < 50 | < 500
Cc1cc(C(=O)O)ccc1C(=O)Nc1ccc(-n2c(-c3cccnc3N)nc3ccc(-c4ccccc4)nc32)cn1 [Compound 63, 4-[[5-[2-(2-amino-3-pyridyl)-5-phenyl-imidazo[4,5-b]pyridin-3-yl]-2-pyridyl]carbamoyl]-3-methyl-benzoic acid] | 200 to 500 | < 500
Nc1ncccc1-c1nc2ccc(-c3ccccc3)nc2n1-c1ccc(NC(=O)c2cccc(CC(=O)O)c2)nc1 [Compound 64, 2-(3-((5-(2-(2-aminopyridin-3-yl)-5-phenyl-3H-imidazo[4,5-b]pyridin-3-yl)pyridin-2-yl)carbamoyl)phenyl) acetic acid] | < 50 | < 500
Nc1ncccc1-c1nc2ccc(-c3ccccc3)nc2n1-c1ccc(NC(=O)c2cccc(C(=O)O)c2F)c(F)c1 [Compound 65, 3-((4-(2-(2-aminopyridin-3-yl)-5-phenyl-3H-imidazo[4,5-b]pyridin-3-yl)-2-fluorophenyl)carbamoyl)-2-fluorobenzoic acid] | 200 to 500 | < 500
Cc1cc(C(=O)O)ccc1C(=O)Nc1ccc(-n2c(-c3cccnc3N)nc3ccc(-c4ccccc4)nc32)cc1F [Compound 66, 4-((4-(2-(2-aminopyridin-3-yl)-5-phenyl-3H-imidazo[4,5-b]pyridin-3-yl)-2-fluorophenyl)carbamoyl)-3-methylbenzoic acid] | 200 to 500 | > 500
Nc1ncccc1-c1nc2ccc(-c3ccccc3)nc2n1-c1ccc(NC(=O)c2cccc(CC(=O)O)c2)c(F)c1 [Compound 67, 2-(3-((4-(2-(2-aminopyridin-3-yl)-5-phenyl-3H-imidazo[4,5-b]pyridin-3-yl)-2-fluorophenyl)carbamoyl)phenyl) acetic acid] | 50 to 200 | < 500
COC(=O)c1ccc(C(=O)N2CC(c3ccc(-n4c(-c5cccnc5N)nc5ccc(-c6ccccc6)nc54)cc3)C2)cc1 [Compound 69, methyl 4-(3-(4-(2-(2-aminopyridin-3-yl)-5-phenyl-3H-imidazo[4,5-b]pyridin-3-yl)phenyl)azetidine-1-carbonyl)benzoate] | > 500 | < 500
Nc1ncccc1-c1nc2ccc(-c3ccccc3)nc2n1-c1ccc(C2CN(C(=O)c3ccc(C(=O)O)cc3)C2)cc1 [Compound 70, 4-(3-(4-(2-(2-aminopyridin-3-yl)-5-phenyl-3H-imidazo[4,5-b]pyridin-3-yl)phenyl)azetidine-1-carbonyl)benzoic acid] | < 50 | < 500
Nc1ncccc1-c1nc2ccc(-c3ccccc3)nc2n1-c1ccc(C2CN(C(=O)c3cccc(C(=O)O)c3)C2)cc1 [Compound 72, 3-(3-(4-(2-(2-aminopyridin-3-yl)-5-phenyl-3H-imidazo[4,5-b]pyridin-3-yl)phenyl)azetidine-1-carbonyl)benzoic acid] | 50 to 200 | < 500
Cc1cc(C(=O)O)ccc1C(=O)N1CC(c2ccc(-n3c(-c4cccnc4N)nc4ccc(-c5ccccc5)nc43)cc2)C1 [Compound 75, 4-(3-(4-(2-(2-aminopyridin-3-yl)-5-phenyl-3H-imidazo[4,5-b]pyridin-3-yl)phenyl)azetidine-1-carbonyl)-3-methylbenzoic acid] | < 50 | < 500

Other lines, results leading:

IC50 [1] [nM] | IC50 [2] [nM] | SMILES
< 50 | < 500 | Nc1ncccc1-c1nc2ccc(-c3ccccc3)nc2n1-c1ccc(NC(=O)c2cccc(C(=O)O)c2)cc1 [Compound 54, 3-[[4-[2-(2-amino-3-pyridyl)-5-phenyl-imidazo[4,5-b]pyridin-3-yl]phenyl]carbamoyl]benzoic acid]
< 50 | < 500 | Nc1ncccc1-c1nc2ccc(-c3ccccc3)nc2n1-c1ccc(NC(=O)c2cccc(C(=O)O)c2F)cc1 [Compound 55, 3-[[4-[2-(2-amino-3-pyridyl)-5-phenyl-imidazo[4,5-b]pyridin-3-yl]phenyl]carbamoyl]-2-fluoro-benzoic acid]
< 50 | < 500 | Nc1ncccc1-c1nc2ccc(-c3ccccc3)nc2n1-c1ccc(NC(=O)c2cccc(CC(=O)O)c2)cc1 [Compound 56, 2-(3-((4-(2-(2-aminopyridin-3-yl)-5-phenyl-3H-imidazo[4,5-b]pyridin-3-yl)phenyl)carbamoyl)phenyl)acetic acid]
50 to 200 | < 500 | Nc1ncccc1-c1nc2ccc(-c3ccccc3)nc2n1-c1ccc(NCc2ccc(C(=O)O)cc2)cc1 [Compound 58, 4-[[4-[2-(2-amino-3-pyridyl)-5-phenyl-imidazo[4,5-b]pyridin-3-yl]anilino]methyl]benzoic acid]
< 50 | < 500 | Nc1ncccc1-c1nc2ccc(-c3ccccc3)nc2n1-c1ccc(NC(=O)c2cccc(C(=O)O)c2)nc1 [Compound 60, 3-((5-(2-(2-aminopyridin-3-yl)-5-phenyl-3H-imidazo[4,5-b]pyridin-3-yl)pyridin-2-yl)carbamoyl)benzoic acid]
50 to 200 | < 500 | Nc1ncccc1-c1nc2ccc(-c3ccccc3)nc2n1-c1ccc(NC(=O)c2cccc(C(=O)O)c2F)nc1 [Compound 61, 3-((5-(2-(2-aminopyridin-3-yl)-5-phenyl-3H-imidazo[4,5-b]pyridin-3-yl)pyridin-2-yl)carbamoyl)-2-fluorobenzoic acid]
50 to 200 | < 500 | Nc1ncccc1-c1nc2ccc(-c3ccccc3)nc2n1-c1ccc(NC(=O)c2ccc(C(=O)O)cc2F)nc1 [Compound 62, 4-((5-(2-(2-aminopyridin-3-yl)-5-phenyl-3H-imidazo[4,5-b]pyridin-3-yl)pyridin-2-yl)carbamoyl)-3-fluorobenzoic acid]
50 to 200 | < 500 | Nc1ncccc1-c1nc2ccc(-c3ccccc3)nc2n1-c1ccc(NCc2ccc(C(=O)O)cc2F)nc1 [Compound 68, 4-[[[5-[2-(2-amino-3-pyridyl)-5-phenyl-imidazo[4,5-b]pyridin-3-yl]-2-pyridyl]amino]methyl]-3-fluoro-benzoic acid]
50 to 200 | < 500 | COC(=O)c1cccc(C(=O)N2CC(c3ccc(-n4c(-c5cccnc5N)nc5ccc(-c6ccccc6)nc54)cc3)C2)c1 [Compound 71, methyl 3-(3-(4-(2-(2-aminopyridin-3-yl)-5-phenyl-3H-imidazo[4,5-b]pyridin-3-yl)phenyl)azetidine-1-carbonyl)benzoate]
> 500 | < 500 | COC(=O)c1ccccc1C(=O)N1CC(c2ccc(-n3c(-c4cccnc4N)nc4ccc(-c5ccccc5)nc43)cc2)C1 [Compound 73, methyl 2-(3-(4-(2-(2-aminopyridin-3-yl)-5-phenyl-3H-imidazo[4,5-b]pyridin-3-yl)phenyl)azetidine-1-carbonyl)benzoate]
> 500 | > 500 | Nc1ncccc1-c1nc2ccc(-c3ccccc3)nc2n1-c1ccc(C2CN(C(=O)c3ccccc3C(=O)O)C2)cc1 [Compound 74, 2-(3-(4-(2-(2-aminopyridin-3-yl)-5-phenyl-3H-imidazo[4,5-b]pyridin-3-yl)phenyl)azetidine-1-carbonyl)benzoic acid]
